Measurements from patent publication US20110039721A1, “METHOD FOR PREDICTION ABOUT CARCINOGENICITY OF SUBSTANCE IN RODENT” (Chemicals Evaluation and Research Institute, priority 2007, published 2011).

Tested on: mRNA expressed from the genes (A) to (D) in rat liver
Assay: Behavior of genes (mRNA expression level, oligo-DNA microarray) in rat liver after 28-day oral administration
Format: in vivo
Conditions: for Behavior of gene caused by administration of chemical substance, Gene No. 4846 / Behavior of gene caused by administration of chemical substance, Gene No. 2026 / Behavior of gene caused by administration of chemical substance, Gene No. 4218 / Behavior of gene caused by administration of chemical substance, Gene No. 6182 / Behavior of gene caused by administration of chemical substance, Gene No. 5600: gene group (A); for Behavior of gene caused by administration of chemical substance, Gene No. 4846: Unigene No. Rn.144554; for Behavior of gene caused by administration of chemical substance, Gene No. 2026 / Behavior of gene caused by administration of chemical substance, Gene No. 4218: Unigene No. Rn.167075; for Behavior of gene caused by administration of chemical substance, Gene No. 6182: Unigene No. Rn.5834; for Behavior of gene caused by administration of chemical substance, Gene No. 5600: Unigene No. Rn.9836; for Behavior of gene caused by administration of chemical substance, Gene No. 1494 / Behavior of gene caused by administration of chemical substance, Gene No. 2045 / Behavior of gene caused by administration of chemical substance, Gene No. 2203: gene group (B); for Behavior of gene caused by administration of chemical substance, Gene No. 1494: Unigene No. Rn.1430; for Behavior of gene caused by administration of chemical substance, Gene No. 2045: Unigene No. Rn.19329; for Behavior of gene caused by administration of chemical substance, Gene No. 2203: Unigene No. Rn.21240; for Behavior of gene caused by administration of chemical substance, Gene No. 533 / Behavior of gene caused by administration of chemical substance, Gene No. 725 / Behavior of gene caused by administration of chemical substance, Gene No. 1163 / Behavior of gene caused by administration of chemical substance, Gene No. 4973 / Behavior of gene caused by administration of chemical substance, Gene No. 4095 / Behavior of gene caused by administration of chemical substance, Gene No. 1334 / Behavior of gene caused by administration of chemical substance, Gene No. 6620 / Behavior of gene caused by administration of chemical substance, Gene No. 6303 / Behavior of gene caused by administration of chemical substance, Gene No. 5878 / Behavior of gene caused by administration of chemical substance, Gene No. 1131 / Behavior of gene caused by administration of chemical substance, Gene No. 1562 / Behavior of gene caused by administration of chemical substance, Gene No. 1741 / Behavior of gene caused by administration of chemical substance, Gene No. 893 / Behavior of gene caused by administration of chemical substance, Gene No. 6026 / Behavior of gene caused by administration of chemical substance, Gene No. 154 / Behavior of gene caused by administration of chemical substance, Gene No. 1993 / Behavior of gene caused by administration of chemical substance, Gene No. 813 / Behavior of gene caused by administration of chemical substance, Gene No. 2494 / Behavior of gene caused by administration of chemical substance, Gene No. 2546 / Behavior of gene caused by administration of chemical substance, Gene No. 3776 / Behavior of gene caused by administration of chemical substance, Gene No. 3929 / Behavior of gene caused by administration of chemical substance, Gene No. 1119 / Behavior of gene caused by administration of chemical substance, Gene No. 6742 / Behavior of gene caused by administration of chemical substance, Gene No. 5634: gene group (C); for Behavior of gene caused by administration of chemical substance, Gene No. 533: Unigene No. Rn.106184; for Behavior of gene caused by administration of chemical substance, Gene No. 725: Unigene No. Rn.108075; for Behavior of gene caused by administration of chemical substance, Gene No. 1163: Unigene No. Rn.11766; for Behavior of gene caused by administration of chemical substance, Gene No. 4973: Unigene No. Rn.118529; for Behavior of gene caused by administration of chemical substance, Gene No. 4095: Unigene No. Rn.119024; for Behavior of gene caused by administration of chemical substance, Gene No. 1334 / Behavior of gene caused by administration of chemical substance, Gene No. 6620: Unigene No. Rn.120914; for Behavior of gene caused by administration of chemical substance, Gene No. 6303: Unigene No. Rn.123063; for Behavior of gene caused by administration of chemical substance, Gene No. 5878: Unigene No. Rn.143213; for Behavior of gene caused by administration of chemical substance, Gene No. 1131: Unigene No. Rn.144946; for Behavior of gene caused by administration of chemical substance, Gene No. 1562: Unigene No. Rn.14744; for Behavior of gene caused by administration of chemical substance, Gene No. 1741: Unigene No. Rn.1647; for Behavior of gene caused by administration of chemical substance, Gene No. 893: Unigene No. Rn.164817; for Behavior of gene caused by administration of chemical substance, Gene No. 6026: Unigene No. Rn.167685; for Behavior of gene caused by administration of chemical substance, Gene No. 154: Unigene No. Rn.185941; for Behavior of gene caused by administration of chemical substance, Gene No. 1993: Unigene No. Rn.18728; for Behavior of gene caused by administration of chemical substance, Gene No. 813: Unigene No. Rn.201760; for Behavior of gene caused by administration of chemical substance, Gene No. 2494: Unigene No. Rn.23969; for Behavior of gene caused by administration of chemical substance, Gene No. 2546: Unigene No. Rn.24561; for Behavior of gene caused by administration of chemical substance, Gene No. 3776: Unigene No. Rn.43232; for Behavior of gene caused by administration of chemical substance, Gene No. 3929: Unigene No. Rn.4620; for Behavior of gene caused by administration of chemical substance, Gene No. 1119: Unigene No. Rn.9757; for Behavior of gene caused by administration of chemical substance, Gene No. 6742: Unigene No. Rn.9779; for Behavior of gene caused by administration of chemical substance, Gene No. 5634: Unigene No. Rn.9862; for Behavior of gene caused by administration of chemical substance, Gene No. 5726: gene group (D), Unigene No. Rn.9939
Method: A test solution was prepared by dissolving each of the carcinogens and the non-carcinogens shown in Tables 2 to 6 in the corresponding solvent shown in Tables 2 to 6. Each of the thus prepared test solutions and the solvents used for the preparation was administered by oral gavage to rats in each group. As the rats, male rats (F344 SPF rats) at 5 weeks of age obtained from Charles River Laboratories Japan, Inc. were used. The animals were divided into groups, each containing four individuals. The volume of the solvent administered to the vehicle control group was set to the same volume as that of the test solution administered to the carcinogen administration group or the non-carcinogen administration group. The administration of the test solution or the solvent was performed once daily for 28 days. Apiece was excised from the liver of each of the rats after a lapse of 28 days from the initiation of the administration, and the total RNA was extracted and purified.
The expression level of mRNA was compared between each of the chemical substance administration groups and the corresponding vehicle control group, and genes that satisfy the requirements described in (A) to (D) were selected, respectively.
The case where the expression level of mRNA in the carcinogen administration group or the non-carcinogen administration group is 1.5 times or more or 1/1.5 or less of the expression level of the corresponding mRNA expressed in the control group was determined to be significant. In this connection, the determination as to whether or not the change is significant was performed by taking into consideration the direction of increase or decrease in the expression level. In the case where the direction of increase or decrease is different as compared with the case where another carcinogen was administered, the change was determined to be not significant.

CC(=O)Nc1ccc(O)cc1 [TS031, Acetaminophen]
−: Behavior of gene caused by administration of chemical substance, Gene No. 4846 | Behavior of gene caused by administration of chemical substance, Gene No. 4218 | Behavior of gene caused by administration of chemical substance, Gene No. 6182 | Behavior of gene caused by administration of chemical substance, Gene No. 5600 | Behavior of gene caused by administration of chemical substance, Gene No. 2045 | Behavior of gene caused by administration of chemical substance, Gene No. 2203 | Behavior of gene caused by administration of chemical substance, Gene No. 725 | Behavior of gene caused by administration of chemical substance, Gene No. 1163 | Behavior of gene caused by administration of chemical substance, Gene No. 4973 | Behavior of gene caused by administration of chemical substance, Gene No. 4095 | Behavior of gene caused by administration of chemical substance, Gene No. 1334 | Behavior of gene caused by administration of chemical substance, Gene No. 6620 | Behavior of gene caused by administration of chemical substance, Gene No. 6303 | Behavior of gene caused by administration of chemical substance, Gene No. 5878 | Behavior of gene caused by administration of chemical substance, Gene No. 1131 | Behavior of gene caused by administration of chemical substance, Gene No. 1562 | Behavior of gene caused by administration of chemical substance, Gene No. 893 | Behavior of gene caused by administration of chemical substance, Gene No. 6026 | Behavior of gene caused by administration of chemical substance, Gene No. 154 | Behavior of gene caused by administration of chemical substance, Gene No. 1993 | Behavior of gene caused by administration of chemical substance, Gene No. 813 | Behavior of gene caused by administration of chemical substance, Gene No. 2494 | Behavior of gene caused by administration of chemical substance, Gene No. 3776 | Behavior of gene caused by administration of chemical substance, Gene No. 3929 | Behavior of gene caused by administration of chemical substance, Gene No. 1119 | Behavior of gene caused by administration of chemical substance, Gene No. 5634 | Behavior of gene caused by administration of chemical substance, Gene No. 5726
+: Behavior of gene caused by administration of chemical substance, Gene No. 2026 | Behavior of gene caused by administration of chemical substance, Gene No. 1494 | Behavior of gene caused by administration of chemical substance, Gene No. 533 | Behavior of gene caused by administration of chemical substance, Gene No. 1741 | Behavior of gene caused by administration of chemical substance, Gene No. 2546 | Behavior of gene caused by administration of chemical substance, Gene No. 6742

C[C@H](CCC(=O)O)[C@H]1CC[C@H]2[C@@H]3CC[C@@H]4C[C@H](O)CC[C@]4(C)[C@H]3CC[C@]12C [TS040, Lithocholic acid]
+: Behavior of gene caused by administration of chemical substance, Gene No. 6742
−: Behavior of gene caused by administration of chemical substance, Gene No. 4846 | Behavior of gene caused by administration of chemical substance, Gene No. 2026 | Behavior of gene caused by administration of chemical substance, Gene No. 4218 | Behavior of gene caused by administration of chemical substance, Gene No. 6182 | Behavior of gene caused by administration of chemical substance, Gene No. 5600 | Behavior of gene caused by administration of chemical substance, Gene No. 1494 | Behavior of gene caused by administration of chemical substance, Gene No. 2045 | Behavior of gene caused by administration of chemical substance, Gene No. 2203 | Behavior of gene caused by administration of chemical substance, Gene No. 533 | Behavior of gene caused by administration of chemical substance, Gene No. 725 | Behavior of gene caused by administration of chemical substance, Gene No. 1163 | Behavior of gene caused by administration of chemical substance, Gene No. 4973 | Behavior of gene caused by administration of chemical substance, Gene No. 4095 | Behavior of gene caused by administration of chemical substance, Gene No. 1334 | Behavior of gene caused by administration of chemical substance, Gene No. 6620 | Behavior of gene caused by administration of chemical substance, Gene No. 6303 | Behavior of gene caused by administration of chemical substance, Gene No. 5878 | Behavior of gene caused by administration of chemical substance, Gene No. 1131 | Behavior of gene caused by administration of chemical substance, Gene No. 1562 | Behavior of gene caused by administration of chemical substance, Gene No. 1741 | Behavior of gene caused by administration of chemical substance, Gene No. 893 | Behavior of gene caused by administration of chemical substance, Gene No. 6026 | Behavior of gene caused by administration of chemical substance, Gene No. 154 | Behavior of gene caused by administration of chemical substance, Gene No. 1993 | Behavior of gene caused by administration of chemical substance, Gene No. 813 | Behavior of gene caused by administration of chemical substance, Gene No. 2494 | Behavior of gene caused by administration of chemical substance, Gene No. 2546 | Behavior of gene caused by administration of chemical substance, Gene No. 3776 | Behavior of gene caused by administration of chemical substance, Gene No. 3929 | Behavior of gene caused by administration of chemical substance, Gene No. 1119 | Behavior of gene caused by administration of chemical substance, Gene No. 5634 | Behavior of gene caused by administration of chemical substance, Gene No. 5726
